Experimental data: patent publication US8344153B2, “Inhibitors of phosphatidylinositol 3-kinase” (Vertex Pharmaceuticals Incorporated, priority 2009, dated 2013)

Target: PI3K-γ (Homo sapiens, UniProt P48736)
Assay: PI3K Inhibition Assay (33P-ATP, PI(4,5)P2 substrate, filter plate scintillation counting)
Assay type: biochemical
Conditions: competitive tight binding Ki fit; 3 μM ATP, 30 μM PI(4,5)P2, 2 nM final enzyme, 30 min at 25° C.; read-out: Ki for the inhibition of PI3Ky
Procedure: One test well also contained 1.5 μL of DMSO with no compound. […] To initiate the reaction, 50 μL of ATP Mix [20 mM MgCl2, 6 μM ATP (100 μCi/μmole ^33P-ATP)] was added each well, followed by incubating the wells for 30 min. at 25° C. Final concentrations in each well were 50 mM HEPES 7.5, 10 mM MgCl2, 25 mM NaCl, 5 mM DTT, 0.1 mg/mL BSA, 30 μM PI(4,5)P2, 3 μM ATP, and the PI3K isoform of interest (see Table 3). Final compound concentrations in each well ranged from 10 μM to 1 nM.
After incubation, the reactions in each well were quenched by addition of 50 μL of stop solution [30% TCA/Water, 10 mM ATP]. […] 50 μL of scintillation fluid was added to each well and the plate read on a Perkin-Elmer TopCount™ NXT liquid scintillation counter to obtain ^33P-counts representing inhibition values.

Chain of PI3K-γ (P48736 whole entry, species assumed): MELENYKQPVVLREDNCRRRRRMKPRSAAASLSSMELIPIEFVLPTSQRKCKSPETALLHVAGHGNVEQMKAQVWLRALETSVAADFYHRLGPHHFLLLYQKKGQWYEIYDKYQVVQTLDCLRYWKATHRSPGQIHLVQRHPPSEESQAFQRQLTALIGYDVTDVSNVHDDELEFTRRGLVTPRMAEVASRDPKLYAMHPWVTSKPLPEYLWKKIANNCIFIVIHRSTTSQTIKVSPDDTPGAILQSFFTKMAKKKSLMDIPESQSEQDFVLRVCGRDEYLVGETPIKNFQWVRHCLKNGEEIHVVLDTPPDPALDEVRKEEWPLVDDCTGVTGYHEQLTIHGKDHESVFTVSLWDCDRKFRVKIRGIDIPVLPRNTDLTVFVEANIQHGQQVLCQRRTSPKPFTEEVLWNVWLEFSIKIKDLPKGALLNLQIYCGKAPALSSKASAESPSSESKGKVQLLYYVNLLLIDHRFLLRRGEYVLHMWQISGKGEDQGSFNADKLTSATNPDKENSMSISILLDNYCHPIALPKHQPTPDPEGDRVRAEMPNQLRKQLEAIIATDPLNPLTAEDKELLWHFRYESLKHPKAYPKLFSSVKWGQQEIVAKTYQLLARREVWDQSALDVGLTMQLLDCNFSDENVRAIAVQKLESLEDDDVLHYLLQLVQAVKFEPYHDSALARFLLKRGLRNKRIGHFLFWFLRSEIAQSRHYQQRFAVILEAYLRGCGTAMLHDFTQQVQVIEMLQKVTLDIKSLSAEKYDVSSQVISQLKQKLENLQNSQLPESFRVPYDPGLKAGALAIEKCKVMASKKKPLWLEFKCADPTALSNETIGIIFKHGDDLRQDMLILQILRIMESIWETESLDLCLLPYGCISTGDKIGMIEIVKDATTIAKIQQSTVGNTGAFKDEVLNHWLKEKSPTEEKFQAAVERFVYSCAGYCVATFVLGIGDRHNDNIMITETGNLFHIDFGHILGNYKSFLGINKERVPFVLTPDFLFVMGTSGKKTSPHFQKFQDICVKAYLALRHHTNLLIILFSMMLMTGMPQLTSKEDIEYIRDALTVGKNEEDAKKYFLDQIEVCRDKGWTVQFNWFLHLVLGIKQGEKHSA

Ki: < 50 nM
SMILES: CCOCCNC(=O)Nc1nc(C)c(C#Cc2ccncc2)s1 [Compound 26]
